Common to all, as to assay: NCI-60 cell line screen, 48 h
In test [1] the test system is OVCAR-5.
Test [2] deals with SR.
Test [3] relates to HL-60.
In test [4] the test system is SN12C.
Test [5] relates to CAKI-1.
Test [6] has as its system SK-MEL-28.
The subject of test [7] is MOLT-4.
Test [8] has as its system HCT-15.
Test [9] relates to OVCAR-8.
The subject of test [10] is SF-539.
The test system of test [11] is UACC-257.
For test [12], the system named is CCRF-CEM.
In test [13] the test system is LOX IMVI.
Test [14] relates to Hs-578T.
Test [15] concerns HOP-62.
Test [16] deals with HCC 2998.
For test [17], the system named is SF-268.
Test [18] deals with SK-OV-3.

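Following 48 hours of exposure in 96-well plates, responses at five concentrations were used to interpolate endpoints linearly. GI50 marks 50% less growth.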 Active and inactive are the calls of the source. No stated cut-off is given here; in the data, active = GI50 up to about 1.1 µM and inactive = higher. Where only a bound is given, the exact number is not on record here.

In the case of `COCCNC1CCC2(SCCS2)c2[nH]c3ccccc3c21` (stereo not given), the GI50 in test [1] was > 100 µM (inactive); in [2], 23.1 µM (inactive); in test [3], 18.9 µM (inactive); in [4] it was 28.4 µM (inactive); in [5], 39.1 µM (inactive); in [6], 26.3 µM (inactive). Moreover, the GI50 in [7] is 29.2 µM (inactive); in test [8], 69.8 µM; in test [9], 46.1 µM (inactive); in [10], 23.6 µM (inactive); in test [11] it was 18 µM (inactive); in test [12], 35.2 µM (inactive). For the same compound, the GI50 was 16.5 µM (inactive) in test [13]; 57.9 µM (inactive) in test [14]; 86.7 µM (inactive) in test [15]; 67.6 µM (inactive) in test [16]; > 100 µM (inactive) in test [17].
For `CC(=O)Oc1cc(Cl)c(OC(C)=O)c2c(OC(C)=O)c(C)c(O[Si](C)(C)C(C)(C)C)cc12`, the GI50 in test [2] was 3.62 µM (inactive); in test [3], 2.84 µM (inactive); in test [4], 11.1 µM (inactive); in [5], 16 µM (inactive); in test [6], 3.05 µM (inactive); in test [7] it was 3.31 µM (inactive). Further, the GI50 in test [8] was 4.76 µM; in test [9], 2.52 µM (inactive); in test [10], 14.5 µM (inactive); in test [11], 3.23 µM (inactive); in [12], 2.54 µM (inactive); in [13], 4.01 µM (inactive). Also, the values for the GI50 in test [15], in [16] and in [17] were 19.1 µM (inactive), 4.46 µM (inactive) and 11.5 µM (inactive), respectively.
`COc1cccc(/C=C2\C(=O)N(C(=O)c3ccc(NC(C)=O)cc3)N=C2C)c1`: the GI50 in [1] was > 100 µM (inactive); in [4] it was > 100 µM (inactive); in test [5], > 100 µM (inactive); in [6], > 100 µM (inactive); in [7], > 100 µM (inactive); in [8], above 100 µM. The GI50 in test [9], in [10], in test [11], in test [12], in [13] and in test [15] was > 100 µM (inactive) in each case. The GI50 in test [16] and in test [17] was > 100 µM (inactive) in each case.
With `CCOC(=O)Cc1nc2cc(F)c(F)cc2[nH]c1=O`, the GI50 in test [1], in test [3], in test [4], in [18], in test [5] and in test [6] was > 100 µM (inactive) throughout. Besides, the GI50 was > 100 µM (inactive) in [7]; above 100 µM in test [8]; > 100 µM (inactive) in [9]; > 100 µM (inactive) in test [10]; > 100 µM (inactive) in test [11]; > 100 µM (inactive) in test [12]. For the same compound, the GI50 in [13], in [14], in [15], in test [16] and in [17] was > 100 µM (inactive) each time.
On to `COc1ccc(C(=O)NCCC2CN(S(=O)(=O)C(F)(F)F)c3ccccc32)c(OC)c1` (stereo not given), for which the GI50 is > 100 µM (inactive) in test [1]; > 100 µM (inactive) in test [2]; > 100 µM (inactive) in [18]; > 100 µM (inactive) in test [5]; 51.2 µM (inactive) in [6]; 29.1 µM (inactive) in test [7]. Also, the GI50 is 57.4 µM in test [8]; 40.8 µM (inactive) in test [11]; 17.2 µM (inactive) in test [12]; 33.1 µM (inactive) in [14]; 88.5 µM (inactive) in test [15]; 60.4 µM (inactive) in test [16].

For the origin of these results see ChEMBL document CHEMBL1201862, “PubChem BioAssay data set” (2004).
